Where “and” joins values, the source holds several entries; their conditions need not be identical. Equal entries are not always repeated.
How the values were obtained:
Assay in all cases: biochemical
STK10 = STK10 (Homo sapiens, UniProt O94804)
STRADA = molecular target: T1, STRADA (Homo sapiens, UniProt Q7RTN6)
T1 sequence (Q7RTN6 1-431): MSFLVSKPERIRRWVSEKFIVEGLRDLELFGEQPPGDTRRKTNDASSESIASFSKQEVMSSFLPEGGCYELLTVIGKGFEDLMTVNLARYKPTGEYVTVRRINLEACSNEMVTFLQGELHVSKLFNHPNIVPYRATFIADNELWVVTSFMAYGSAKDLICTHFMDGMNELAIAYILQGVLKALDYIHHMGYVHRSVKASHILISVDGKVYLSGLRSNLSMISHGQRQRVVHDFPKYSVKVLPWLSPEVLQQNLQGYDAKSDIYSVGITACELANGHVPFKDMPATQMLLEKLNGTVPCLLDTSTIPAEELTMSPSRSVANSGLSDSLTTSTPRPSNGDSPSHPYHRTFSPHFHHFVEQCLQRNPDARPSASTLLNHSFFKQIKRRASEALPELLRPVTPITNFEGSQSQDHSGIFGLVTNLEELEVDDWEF

ZAK = ZAK (Homo sapiens, UniProt Q9NYL2)
MAP3K7 = molecular target: T2, MAP3K7 (Homo sapiens, UniProt O43318)
T2 sequence (O43318 1-606): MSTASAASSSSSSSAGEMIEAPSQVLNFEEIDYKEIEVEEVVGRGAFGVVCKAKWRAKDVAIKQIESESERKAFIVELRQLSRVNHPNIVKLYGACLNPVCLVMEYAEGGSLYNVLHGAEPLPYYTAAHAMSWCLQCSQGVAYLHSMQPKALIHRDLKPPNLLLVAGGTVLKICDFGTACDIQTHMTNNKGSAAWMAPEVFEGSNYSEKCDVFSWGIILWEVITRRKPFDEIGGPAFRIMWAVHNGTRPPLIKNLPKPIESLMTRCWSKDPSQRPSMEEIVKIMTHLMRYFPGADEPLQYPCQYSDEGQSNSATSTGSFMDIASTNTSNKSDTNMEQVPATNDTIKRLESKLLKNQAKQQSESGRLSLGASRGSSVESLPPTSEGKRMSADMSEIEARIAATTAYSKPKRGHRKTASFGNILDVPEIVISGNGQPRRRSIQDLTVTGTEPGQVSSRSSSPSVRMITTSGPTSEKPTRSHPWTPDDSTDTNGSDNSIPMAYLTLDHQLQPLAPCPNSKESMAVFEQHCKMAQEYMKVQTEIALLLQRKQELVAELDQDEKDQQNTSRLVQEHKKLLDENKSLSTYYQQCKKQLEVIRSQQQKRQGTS

AURKA = molecular target: T3, AURKA (Homo sapiens, UniProt O14965)
T3 sequence (O14965 1-403): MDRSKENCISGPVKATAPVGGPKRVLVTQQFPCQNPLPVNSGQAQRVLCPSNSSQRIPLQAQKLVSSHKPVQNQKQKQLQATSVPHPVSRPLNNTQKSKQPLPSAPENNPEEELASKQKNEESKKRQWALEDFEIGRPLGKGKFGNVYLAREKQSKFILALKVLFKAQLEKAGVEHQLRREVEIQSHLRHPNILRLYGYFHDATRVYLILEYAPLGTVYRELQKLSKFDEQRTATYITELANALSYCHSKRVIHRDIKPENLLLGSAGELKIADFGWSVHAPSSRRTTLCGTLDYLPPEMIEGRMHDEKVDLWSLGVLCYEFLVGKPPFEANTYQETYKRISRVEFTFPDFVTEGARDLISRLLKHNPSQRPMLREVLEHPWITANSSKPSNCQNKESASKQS

MELK = MELK (Homo sapiens, UniProt Q14680)
DDR1 = DDR1 (Homo sapiens, UniProt Q08345)
PIK3R4 = PIK3R4 (Homo sapiens, UniProt Q99570)
mTOR = mTOR (Homo sapiens, UniProt P42345)

Chain of DDR1 (Q08345 whole entry): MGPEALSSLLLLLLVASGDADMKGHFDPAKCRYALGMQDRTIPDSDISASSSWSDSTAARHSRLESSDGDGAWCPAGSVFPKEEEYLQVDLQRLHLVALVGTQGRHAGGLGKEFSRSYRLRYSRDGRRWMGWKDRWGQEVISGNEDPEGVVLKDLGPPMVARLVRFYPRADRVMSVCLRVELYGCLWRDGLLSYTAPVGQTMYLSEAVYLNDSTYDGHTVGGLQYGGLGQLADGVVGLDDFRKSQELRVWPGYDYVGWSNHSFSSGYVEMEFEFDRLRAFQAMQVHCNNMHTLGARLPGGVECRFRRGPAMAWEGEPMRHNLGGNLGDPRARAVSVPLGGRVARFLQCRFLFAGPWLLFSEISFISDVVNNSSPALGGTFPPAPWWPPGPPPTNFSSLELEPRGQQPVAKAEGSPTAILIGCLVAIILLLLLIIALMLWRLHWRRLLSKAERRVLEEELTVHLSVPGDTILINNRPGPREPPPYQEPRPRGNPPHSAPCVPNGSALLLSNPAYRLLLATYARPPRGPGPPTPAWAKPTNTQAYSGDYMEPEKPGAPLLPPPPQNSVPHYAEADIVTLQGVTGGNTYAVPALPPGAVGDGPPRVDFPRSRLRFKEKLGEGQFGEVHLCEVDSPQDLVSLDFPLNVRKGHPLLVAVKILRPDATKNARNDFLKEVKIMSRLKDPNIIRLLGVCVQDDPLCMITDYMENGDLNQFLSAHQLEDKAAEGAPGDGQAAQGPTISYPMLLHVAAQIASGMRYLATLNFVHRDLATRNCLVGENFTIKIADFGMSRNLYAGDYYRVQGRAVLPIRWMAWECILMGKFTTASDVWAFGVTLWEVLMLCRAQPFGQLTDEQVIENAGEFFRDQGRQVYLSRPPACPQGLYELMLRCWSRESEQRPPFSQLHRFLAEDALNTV
Chain of STK10 (O94804 whole entry): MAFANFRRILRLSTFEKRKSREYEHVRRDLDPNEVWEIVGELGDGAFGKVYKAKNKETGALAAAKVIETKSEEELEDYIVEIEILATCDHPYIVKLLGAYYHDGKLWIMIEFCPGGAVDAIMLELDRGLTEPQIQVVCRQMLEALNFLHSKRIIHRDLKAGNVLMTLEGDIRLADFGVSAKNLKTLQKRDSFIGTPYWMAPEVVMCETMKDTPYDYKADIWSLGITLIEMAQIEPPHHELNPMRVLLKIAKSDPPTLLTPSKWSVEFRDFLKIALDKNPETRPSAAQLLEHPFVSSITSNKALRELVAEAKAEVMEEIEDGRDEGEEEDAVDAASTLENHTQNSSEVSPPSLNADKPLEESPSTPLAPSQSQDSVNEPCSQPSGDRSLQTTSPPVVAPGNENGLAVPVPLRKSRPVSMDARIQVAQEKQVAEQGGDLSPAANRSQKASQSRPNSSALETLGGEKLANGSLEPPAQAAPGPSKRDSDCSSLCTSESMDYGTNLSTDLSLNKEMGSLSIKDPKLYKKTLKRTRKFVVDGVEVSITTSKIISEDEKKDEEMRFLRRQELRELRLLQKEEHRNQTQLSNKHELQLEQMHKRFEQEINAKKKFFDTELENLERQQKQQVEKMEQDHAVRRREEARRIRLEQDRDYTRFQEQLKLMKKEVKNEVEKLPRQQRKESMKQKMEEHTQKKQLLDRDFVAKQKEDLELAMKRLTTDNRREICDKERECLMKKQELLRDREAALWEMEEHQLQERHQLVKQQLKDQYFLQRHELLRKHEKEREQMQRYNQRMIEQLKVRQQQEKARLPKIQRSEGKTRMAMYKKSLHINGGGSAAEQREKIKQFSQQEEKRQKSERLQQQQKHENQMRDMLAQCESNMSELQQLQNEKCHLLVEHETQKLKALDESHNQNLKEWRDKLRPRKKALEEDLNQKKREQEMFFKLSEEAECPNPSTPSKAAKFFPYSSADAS
Chain of ZAK (Q9NYL2 whole entry): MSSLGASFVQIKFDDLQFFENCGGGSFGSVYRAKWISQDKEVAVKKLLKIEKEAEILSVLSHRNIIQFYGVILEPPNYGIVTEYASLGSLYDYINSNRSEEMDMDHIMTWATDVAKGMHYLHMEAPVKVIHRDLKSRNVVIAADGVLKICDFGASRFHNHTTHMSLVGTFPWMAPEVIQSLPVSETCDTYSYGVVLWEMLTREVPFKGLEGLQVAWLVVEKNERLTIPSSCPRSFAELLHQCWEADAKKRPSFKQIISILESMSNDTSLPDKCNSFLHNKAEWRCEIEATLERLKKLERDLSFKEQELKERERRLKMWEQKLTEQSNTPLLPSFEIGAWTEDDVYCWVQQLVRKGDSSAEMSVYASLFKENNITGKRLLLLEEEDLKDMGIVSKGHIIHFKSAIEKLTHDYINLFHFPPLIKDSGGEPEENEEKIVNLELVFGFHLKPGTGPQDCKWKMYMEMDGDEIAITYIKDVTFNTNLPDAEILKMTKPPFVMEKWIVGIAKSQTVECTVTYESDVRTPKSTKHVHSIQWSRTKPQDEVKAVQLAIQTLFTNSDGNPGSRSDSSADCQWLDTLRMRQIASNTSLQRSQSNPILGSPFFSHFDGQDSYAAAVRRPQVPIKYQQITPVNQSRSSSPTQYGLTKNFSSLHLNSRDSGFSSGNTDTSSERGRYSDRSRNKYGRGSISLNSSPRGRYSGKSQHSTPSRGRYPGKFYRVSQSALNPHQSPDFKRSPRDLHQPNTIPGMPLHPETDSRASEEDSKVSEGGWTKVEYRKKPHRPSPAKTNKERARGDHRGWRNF
Chain of MELK (Q14680 whole entry): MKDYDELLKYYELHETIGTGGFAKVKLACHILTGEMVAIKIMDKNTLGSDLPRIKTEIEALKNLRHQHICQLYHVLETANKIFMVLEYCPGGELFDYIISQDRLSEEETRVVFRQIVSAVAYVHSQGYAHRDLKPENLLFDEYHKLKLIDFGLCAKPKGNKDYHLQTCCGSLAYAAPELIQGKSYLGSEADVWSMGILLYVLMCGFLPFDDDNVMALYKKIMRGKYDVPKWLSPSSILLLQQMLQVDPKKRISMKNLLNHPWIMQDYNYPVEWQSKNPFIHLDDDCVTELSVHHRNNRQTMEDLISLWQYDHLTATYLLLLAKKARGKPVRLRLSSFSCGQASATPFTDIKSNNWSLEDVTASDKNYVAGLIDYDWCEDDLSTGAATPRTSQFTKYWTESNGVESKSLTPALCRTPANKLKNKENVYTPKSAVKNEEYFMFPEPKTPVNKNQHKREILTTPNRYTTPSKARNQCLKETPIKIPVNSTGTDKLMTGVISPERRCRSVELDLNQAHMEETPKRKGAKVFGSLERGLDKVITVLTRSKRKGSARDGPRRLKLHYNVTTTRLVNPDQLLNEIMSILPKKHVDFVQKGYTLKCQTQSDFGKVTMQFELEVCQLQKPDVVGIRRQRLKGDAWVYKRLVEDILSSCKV
Chain of PIK3R4 (Q99570 whole entry): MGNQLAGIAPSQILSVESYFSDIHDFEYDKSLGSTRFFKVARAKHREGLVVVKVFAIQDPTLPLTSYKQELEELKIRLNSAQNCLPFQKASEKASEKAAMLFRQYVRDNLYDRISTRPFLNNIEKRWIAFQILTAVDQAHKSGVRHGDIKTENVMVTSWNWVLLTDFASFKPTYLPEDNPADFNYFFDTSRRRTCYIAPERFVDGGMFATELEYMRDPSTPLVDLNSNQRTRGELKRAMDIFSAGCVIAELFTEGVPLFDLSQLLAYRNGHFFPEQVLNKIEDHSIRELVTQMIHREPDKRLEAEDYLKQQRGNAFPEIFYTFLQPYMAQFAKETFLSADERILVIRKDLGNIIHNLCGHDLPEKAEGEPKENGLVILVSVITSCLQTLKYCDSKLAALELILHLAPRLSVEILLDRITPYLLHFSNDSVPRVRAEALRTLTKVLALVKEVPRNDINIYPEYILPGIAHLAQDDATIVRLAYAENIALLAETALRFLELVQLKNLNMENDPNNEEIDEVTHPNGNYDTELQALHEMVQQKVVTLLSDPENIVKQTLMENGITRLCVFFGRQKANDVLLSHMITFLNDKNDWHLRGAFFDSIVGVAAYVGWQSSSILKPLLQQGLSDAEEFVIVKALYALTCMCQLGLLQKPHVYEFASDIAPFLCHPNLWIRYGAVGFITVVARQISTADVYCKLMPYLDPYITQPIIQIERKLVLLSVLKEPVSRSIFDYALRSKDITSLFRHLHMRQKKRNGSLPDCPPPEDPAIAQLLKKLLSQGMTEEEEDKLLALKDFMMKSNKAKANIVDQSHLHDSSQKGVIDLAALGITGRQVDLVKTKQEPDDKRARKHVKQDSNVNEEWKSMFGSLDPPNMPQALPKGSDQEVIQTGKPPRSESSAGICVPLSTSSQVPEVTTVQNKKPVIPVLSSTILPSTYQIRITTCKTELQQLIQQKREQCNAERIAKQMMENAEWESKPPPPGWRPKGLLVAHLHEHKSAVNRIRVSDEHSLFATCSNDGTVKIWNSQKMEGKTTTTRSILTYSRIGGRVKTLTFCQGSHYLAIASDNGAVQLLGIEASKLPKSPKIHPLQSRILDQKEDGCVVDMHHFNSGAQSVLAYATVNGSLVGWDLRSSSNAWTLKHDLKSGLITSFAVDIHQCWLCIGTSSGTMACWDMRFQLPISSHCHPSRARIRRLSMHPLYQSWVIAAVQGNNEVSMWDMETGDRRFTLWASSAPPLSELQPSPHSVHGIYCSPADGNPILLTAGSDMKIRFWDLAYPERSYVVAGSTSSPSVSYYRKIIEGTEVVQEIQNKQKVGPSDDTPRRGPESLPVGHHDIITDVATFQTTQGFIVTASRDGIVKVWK

SMILES | IC50 (STK10) | IC50 (STRADA) | IC50 (ZAK) | IC50 (MAP3K7) | IC50 (AURKA) | IC50 (MELK) | IC50 (DDR1) | IC50 (PIK3R4) | IC50 (mTOR)
CN1CCN(c2ccc(Nc3ncc(C#N)c(Nc4ccccc4C(N)=O)n3)cc2)CC1.Cl [TCMDC-134116] | 48 nM and 93 nM | > 20000 nM | 950 nM | 2000 nM and 1100 nM | ≤ 32 nM and 52 nM | 360 nM and 350 nM | 600 nM and 490 nM | 2200 nM | > 20000 nM
Cl.NCC1(c2nc(-c3ccc(Cl)c(O)c3)c(-c3ccncc3)[nH]2)CCCCC1 [TCMDC-141154] | 57 nM | > 20000 nM | 8600 nM and 5100 nM | > 20000 nM | > 20000 nM | 4700 nM and 4500 nM | 1800 nM | > 20000 nM | > 20000 nM
CN(C)CC(O)COc1ccc(Nc2ncc([N+](=O)[O-])c(Nc3ccccc3O)n2)cc1.O=C(O)C(F)(F)F (stereo not drawn) [TCMDC-141399] | 6300 nM | > 20000 nM | > 20000 nM | > 20000 nM | > 20000 nM | > 20000 nM | 11000 nM | > 20000 nM | > 20000 nM

— publication PMC4774911, “Biochemical Screening of Five Protein Kinases from Plasmodium falciparum against 14,000 Cell-Active Compounds” (PLoS ONE, 2016)
